Reference: patent US20220306622A1, “SALT AND CRYSTAL FORM OF MTORC1/2 DUAL KINASE ACTIVITY INHIBITOR AND PREPARATION METHOD THEREFOR” (MEDSHINE DISCOVERY INC., priority 2019, published 2022)
Entries after “also recorded” stand apart in the source; their conditions may differ.

Experiments:
[1] = Dynamic vapor sorption (DVS) hygroscopicity study; assay type: physicochemical; conditions: 25.6° C. and 80% RH
Protocol: Instrument model: SMS DVS Advantage dynamic vapour adsorbent device
Test conditions: taking the sample (10-15 mg) and putting it into a DVS sample tray for test.
Detailed DVS parameters are as follows:
Balance: dm/dt=0.01%/min (minimum: 10 min, maximum: 180 min)
RH(%) test step range: 0%-90%-0% RH (%)
The evaluation of moisture absorption is classed as follows:
DVS Advantage dynamic vapour adsorbent device

[2] = Solid stability test under long-term and accelerated conditions (XRPD); assay type: physicochemical
Protocol: Each sample was put into a double-layer LDPE Bag with each layer buckled and sealed respectively, and then the LDPE Bag was put into an aluminum foil bag and heat sealed. The samples were investigated for XRPD under the conditions of 25° C./60% RH (14 bags), 30° C./65% RH (10 bags) and 40° C./75% RH (10 bags). The test results were compared with the initial test results of 0 days.

[3] = biological target: T1, mTOR kinase (Homo sapiens, UniProt P42345); test: mTOR kinase inhibitory activity in vitro (discoverx ligand-bead competition binding, qPCR)
T1 construct: purchased discoverx; host or cells: HEK-293
Protocol: This experiment was tested on discoverx, and all materials and methods were from discoverx.
1. The labeled mTOR kinase was stably expressed in HEK-293 cells.
2. Streptavidin magnetic beads were treated with biotinylated small molecule ligands for 30 minutes at room temperature to produce an affinity resin for kinase analysis;
3. The ligand beads were blocked with excess biotin and washed with buffer (1% bovine serum albumin, 20 […] of dithiothreitol) to wash off unbound ligands and nonspecifically bound ligands;
5. The test compound was dissolved in dimethyl sulfoxide;
6. All compounds used for measurement were dissolved in DMSO and then diluted directly to a concentration of 0.9%;
7. The solution was placed on 384 well polypropylene plates with a volume of 0.02 mL of each well;
8. The plate was shaked at room temperature for 1 hour;
9. The plate was washed with buffer (1× PBS, 0.05% Tween 20);
10. Affinity beads were resuspended in buffer (1× PBS, 0.05% Tween 20, 0.5 μM nonbiotin-affinity ligands) and incubated at room temperature for 30 minutes;
11. The kinase in eluent was measured for its concentration by qPCR.

[4] = system: MCF-7 cells; test: Cell proliferation inhibitory activity (Cell-Titer-Glo), MCF-7; assay type: cell-based, human
Protocol: (§1) Objective: the inhibitory activity of the compound to be tested was tested on cell proliferation.
(§2) Experimental principle: Luciferase in Cell-Titer-Glo reagent uses luciferin, oxygen and ATP as reaction substrates to produce oxidized luciferin and release energy in the form of light. Since ATP is required for luciferase reaction, the total amount of light produced by the reaction is directly proportional to the total amount of ATP in response to cell viability.
(§3) Cell lines: MCF-7 cell line (ATCC-CRL-22), HT-29 cell line (ATCC-HTB-38), OE21 (ECACC-96062201), NCI-N87 cell line (ATCC-CRL-5822)
(§4) Cell Titer-Glo® Luminescent cell viability test kit (Promega #G7573)
(§5) According to the schematic diagram of cell seed plate, 384 or 96 well plate was seeded based on 1000 cells per well with a density of 25 μL per well, and the edge well was supplemented with 25 μL PBS, instead of cells.
(§6) (1) The mother liquor of the compound was 10 mM, and the compound was diluted with DMSO to obtain its initial concentration of 4 mM. The compound was added into the mother liquor plate with 9 μL per well. […]
(§7) The cell plate was taken from the incubator and balanced at room temperature for 30 minutes. […] After 10 minutes, the plate reading was performed on PerkinElmer envision with setting the […] reading time of 0.2 seconds.

[5] = system: N87 cells; test: Cell proliferation inhibitory activity (Cell-Titer-Glo), N87; assay type: cell-based
Protocol: as §1, §2, §3, §4, §5, §6, §7

[6] = Pharmacokinetic evaluation in plasma of mice (IV and PO); assay type: in vivo, BALB/C female mice; conditions: mouse
Protocol: The tested compound was mixed with 5% DMSO/95% 10% polyoxyethylene castor oil (Cremophor EL) followed by vortex and ultrasonic treatment to prepare 1 mg/mL approximate clear solution, which was filtered by microporous membrane before used. BALB/C female mice of 18 to 20 g were injected with the compound solution intravenously at a dose of 1 or 2 mg/kg. The tested compound was mixed with 1% Tween […], 90% aqueous solution followed by vortex and ultrasonic treatment to prepare 1 mg/mL approximate clear solution, which was filtered by microporous membrane before used. BALB/C female mice of 18 to 20 g were given the candidate compound solution orally at a dose of 2 or 10 mg/kg. Whole blood was collected for a certain time to prepare plasma. The medicament was analyzed for its concentration by LC-MS/MS, and the pharmacokinetic parameters were calculated by Phoenix winnonlin software (pharsight company).

[7] = system: subcutaneous xenografts of human breast cancer MCF-7 cell; test: In vivo pharmacodynamic study, subcutaneous MCF-7 xenograft model; set-up: species or system nude BALB/c mice
Protocol: Experimental objective: to study the in vivo efficacy of the compound to be tested on subcutaneous xenografts of human breast cancer MCF-7 in nude BALB/c mice model.
Experimental animals: female BALB/C nude mice, 6-8 weeks old, weighing 18-22 g; Supplier: Shanghai Xipur Bikai Experimental Animal Co., Ltd.
Human breast cancer MCF-7 cells (ECACC, item number: 86012803) were cultured in monolayer in vitro. The culture conditions were EMEM (EBSS)+2 mM […]+1% Non Essential Amino Acids (NEAA) medium plus 10% fetal bovine serum, 100 U/mL penicillin and 100 μg/mL streptomycin, incubated in 5% CO2 incubator at 37° C. Cells were passaged through routine digestion using Trypsin EDTA twice a week. When the cell saturation was 80%-90% and the number reached the requirements, cells were collected, counted and inoculated. […]
The experimental index is used for investigating whether tumor growth is inhibited, delayed or cured. The tumor diameter was measured with a vernier caliper twice a week. […]
The antitumor effect of the compound was evaluated by TGI (%) or relative tumor proliferation rate T/C(%). […]
Relative tumor proliferation rate T/C (%): the calculation formula is as follows: T/C %=TRTV/CRTV (TRTV:RTV in treatment group; CRTV:RTV in negative control group). The relative tumor volume (RTV) is calculated according to the results of tumor measurement. […]

C[C@H]1COCCN1c1nc(N2CCOC3(CC3)C2)nc2nc(-c3cccc(C(N)=O)c3)ccc12
hygroscopicity (classification) [1]: without hygroscopicity
ΔW % (hygroscopic weight gain) [1]: < 0.2%
Crystal form (XRPD) ([2]; 25° C./60% RH, 3 months): Crystal form A
Crystal form (XRPD) ([2]; 25° C./60% RH, 6 months): Crystal form A
Crystal form (XRPD) ([2]; 40° C./75% RH, 3 months): Crystal form A
Crystal form (XRPD) ([2]; 40° C./75% RH, 6 months): Crystal form A
Crystal form (XRPD) ([2]; Day 0 (initial)): Crystal form A
solid stability (in words) ([2]; high temperature, high humidity and strong light): good stability

C[C@H]1COCCN1c1nc(N2CCOC3(CC3)C2)nc2nc(-c3cccc(C(N)=O)c3)ccc12 [Compound of formula (I)]
mTOR kinase inhibitory activity (in words) [3]: significant or even unexpected mTOR kinase inhibitory activity, which is better than the current clinical compound AZD2014
inhibitory activity on proliferation of MCF-7 cells (in words) [4]: obvious inhibitory activity
inhibitory activity on proliferation of N87 cells (in words) [5]: obvious inhibitory activity
bioavailability ([6]; female, BALB/C, plasma, 10 mg/kg, oral administration): ~100%
pharmacokinetic properties compared with the reference compound (in words) [6]: the same or even better pharmacokinetic properties as the reference compound
efficacy in MCF-7 Xenograft tumor model compared with AZD2014 (in words) ([7]; mouse, in vivo): equivalent to that of AZD2014; also recorded: comparable to AZD2014

CNC(=O)c1cccc(-c2ccc3c(N4CCOC[C@@H]4C)nc(N4CCOC[C@@H]4C)nc3n2)c1 [AZD2014, reference compound]
RTV (day 27) ([7]; 15 mg/kg): 0.85 ± 0.26
